According to PMC5218480 (PLoS ONE, 2017):

Tested on: MV-4-11 cells
Test: Gene expression microarray analysis (Affymetrix PrimeView) and GSEA
Format: cell-based, human
Parameters: RFU PODN (11730768_x_at) / Fold change /veh PODN (11730768_x_at) / RFU LINC00158 (11744669_a_at) / Fold change /veh LINC00158 (11744669_a_at) / RFU DUSP10 (11751237_a_at) / Fold change /veh DUSP10 (11751237_a_at) / RFU ID3 (11757404_x_at) / Fold change /veh ID3 (11757404_x_at) / RFU PLEKHG5 (11737974_s_at) / Fold change /veh PLEKHG5 (11737974_s_at) / RFU LRRC4B (11730491_at) / Fold change /veh LRRC4B (11730491_at) / RFU GIMAP4 (11747438_a_at) / Fold change /veh GIMAP4 (11747438_a_at) / RFU KRT8 (11758183_x_at) / Fold change /veh KRT8 (11758183_x_at) / RFU CNN1 (11734310_a_at) / Fold change /veh CNN1 (11734310_a_at) / RFU VPS37D (11726825_at) / Fold change /veh VPS37D (11726825_at) / RFU C10orf10 (11716522_x_at) / Fold change /veh C10orf10 (11716522_x_at) / RFU KIR2DL2 /// KIR2DL4 /// KIR2DL5A /// KIR2DL5B /// KIR2DS1 /// KIR2DS2 /// KIR2DS3 /// KIR2DS4 /// KIR3DL3 /// KIR3DL3 /// KIR3DS1 (11738374_at) / Fold change /veh KIR2DL2 /// KIR2DL4 /// KIR2DL5A /// KIR2DL5B /// KIR2DS1 /// KIR2DS2 /// KIR2DS3 /// KIR2DS4 /// KIR3DL3 /// KIR3DL3 /// KIR3DS1 (11738374_at) / RFU C1QL1 (11718748_at) / Fold change /veh C1QL1 (11718748_at) / RFU TMPRSS4 (11747572_a_at) / Fold change /veh TMPRSS4 (11747572_a_at) / RFU HAMP (11756126_x_at) / Fold change /veh HAMP (11756126_x_at) / RFU RNFT2 (11725882_a_at) / Fold change /veh RNFT2 (11725882_a_at) / RFU NR4A2 (11747474_a_at) / Fold change /veh NR4A2 (11747474_a_at) / RFU ABCC12 (11746883_a_at) / Fold change /veh ABCC12 (11746883_a_at) / RFU TMEM136 (11760407_x_at) / Fold change /veh TMEM136 (11760407_x_at) / RFU CLDN22 /// WWC2 (11732394_at) / Fold change /veh CLDN22 /// WWC2 (11732394_at) / RFU HLA-DPB1 (11760878_x_at) / Fold change /veh HLA-DPB1 (11760878_x_at) / RFU SPINT1 (11716480_a_at) / Fold change /veh SPINT1 (11716480_a_at) / RFU GAP43 (11754022_s_at) / Fold change /veh GAP43 (11754022_s_at) / RFU A4GNT (11735810_at) / Fold change /veh A4GNT (11735810_at) / RFU PRB3 (11715151_x_at) / Fold change /veh PRB3 (11715151_x_at) / RFU TUBB4B (11761932_at) / Fold change /veh TUBB4B (11761932_at) / RFU CAPN14 (11732068_a_at) / Fold change /veh CAPN14 (11732068_a_at) / RFU TMCC2 (11721928_a_at) / Fold change /veh TMCC2 (11721928_a_at) / RFU IRGQ (11745062_a_at) / Fold change /veh IRGQ (11745062_a_at) / RFU FAM174B (11720279_a_at) / Fold change /veh FAM174B (11720279_a_at) / RFU TMPRSS4 (11748680_a_at) / Fold change /veh TMPRSS4 (11748680_a_at) / RFU FAM212B (11763350_a_at) / Fold change /veh FAM212B (11763350_a_at) / RFU PLEKHG5 (11743358_a_at) / Fold change /veh PLEKHG5 (11743358_a_at) / RFU ZSCAN30 (11745921_a_at) / Fold change /veh ZSCAN30 (11745921_a_at) / RFU CMKLR1 (11741424_a_at) / Fold change /veh CMKLR1 (11741424_a_at) / RFU LOC101060620 /// MAPK8IP1 (11723275_at) / Fold change /veh LOC101060620 /// MAPK8IP1 (11723275_at) / RFU SPTSSB (11747773_x_at) / Fold change /veh SPTSSB (11747773_x_at) / RFU PRSS12 (11739890_at) / Fold change /veh PRSS12 (11739890_at) / RFU BIN1 (11741810_x_at) / Fold change /veh BIN1 (11741810_x_at) / RFU WNT11 (11732464_a_at) / Fold change /veh WNT11 (11732464_a_at) / RFU C10orf10 (11716521_a_at) / Fold change /veh C10orf10 (11716521_a_at) / RFU C5orf56 (11738089_at) / Fold change /veh C5orf56 (11738089_at) / RFU CYB561 (11721691_x_at) / Fold change /veh CYB561 (11721691_x_at) / RFU ANKRD19P (11752326_a_at) / Fold change /veh ANKRD19P (11752326_a_at) / RFU OR2T12 /// OR2T33 /// OR2T8 (11738714_s_at) / Fold change /veh OR2T12 /// OR2T33 /// OR2T8 (11738714_s_at) / RFU VCAN (11748164_a_at) / Fold change /veh VCAN (11748164_a_at) / RFU JSRP1 (11732532_at) / Fold change /veh JSRP1 (11732532_at) / RFU KRTAP10-11 (11738290_x_at) / Fold change /veh KRTAP10-11 (11738290_x_at) / RFU MYO3A (11730013_a_at) / Fold change /veh MYO3A (11730013_a_at) / RFU EBF3 (11725865_a_at) / Fold change /veh EBF3 (11725865_a_at) / RFU CAMK2N1 (11719241_x_at) / Fold change /veh CAMK2N1 (11719241_x_at) / RFU C5orf56 (11738088_a_at) / Fold change /veh C5orf56 (11738088_a_at) / RFU OLFML3 (11715873_a_at) / Fold change /veh OLFML3 (11715873_a_at) / RFU LOC100653217 /// NTM (11731650_a_at) / Fold change /veh LOC100653217 /// NTM (11731650_a_at) / RFU MAPK11 (11762145_a_at) / Fold change /veh MAPK11 (11762145_a_at) / RFU FIZ1 (11724087_x_at) / Fold change /veh FIZ1 (11724087_x_at) / RFU OASL (11726364_x_at) / Fold change /veh OASL (11726364_x_at) / RFU SOX15 (11748057_x_at) / Fold change /veh SOX15 (11748057_x_at) / RFU CD79A (11719716_a_at) / Fold change /veh CD79A (11719716_a_at) / RFU HIST1H1D (11736915_at) / Fold change /veh HIST1H1D (11736915_at) / RFU CASKIN2 (11723855_a_at) / Fold change /veh CASKIN2 (11723855_a_at) / RFU LOC730098 (11760151_x_at) / Fold change /veh LOC730098 (11760151_x_at) / RFU OR4N2 (11742367_at) / Fold change /veh OR4N2 (11742367_at) / RFU PRRT2 (11749266_a_at) / Fold change /veh PRRT2 (11749266_a_at) / RFU SNX32 (11753110_a_at) / Fold change /veh SNX32 (11753110_a_at) / RFU CDHR5 (11726645_a_at) / Fold change /veh CDHR5 (11726645_a_at) / RFU RCAN1 (11760418_a_at) / Fold change /veh RCAN1 (11760418_a_at) / RFU FAM167A (11723789_a_at) / Fold change /veh FAM167A (11723789_a_at) / RFU FAM26E (11764081_at) / Fold change /veh FAM26E (11764081_at) / RFU ISYNA1 (11749810_s_at) / Fold change /veh ISYNA1 (11749810_s_at) / RFU ACY1 (11761880_at) / Fold change /veh ACY1 (11761880_at) / RFU 11764098_at / Fold change /veh 11764098_at / RFU SAMD14 (11745864_x_at) / Fold change /veh SAMD14 (11745864_x_at) / RFU NPB (11741838_a_at) / Fold change /veh NPB (11741838_a_at) / RFU TMPRSS6 (11731388_a_at) / Fold change /veh TMPRSS6 (11731388_a_at) / RFU KRTAP10-2 (11738614_at) / Fold change /veh KRTAP10-2 (11738614_at) / RFU ARHGAP8 /// PRR5-ARHGAP8 (11727945_x_at) / Fold change /veh ARHGAP8 /// PRR5-ARHGAP8 (11727945_x_at) / RFU KRTAP5-7 /// NADSYN1 (11734609_at) / Fold change /veh KRTAP5-7 /// NADSYN1 (11734609_at) / RFU RASL12 (11751679_a_at) / Fold change /veh RASL12 (11751679_a_at) / RFU CDKN2B (11736163_a_at) / Fold change /veh CDKN2B (11736163_a_at) / RFU PRF1 (11729649_at) / Fold change /veh PRF1 (11729649_at) / RFU, ZNF638 /// ZNF638-IT1 / Fold change vs veh, ZNF638 /// ZNF638-IT1 / RFU, PANK3 / Fold change vs veh, PANK3 / RFU, SH3YL1 / Fold change vs veh, SH3YL1 / RFU, ZEB2 / Fold change vs veh, ZEB2 / RFU, NRIP1 / Fold change vs veh, NRIP1 / RFU, PTTG1IP / Fold change vs veh, PTTG1IP / RFU, CAPN2 / Fold change vs veh, CAPN2 / RFU, MED14 / Fold change vs veh, MED14 / RFU, SNORA58 / Fold change vs veh, SNORA58 / RFU, C1orf63 / Fold change vs veh, C1orf63 / RFU, LRRFIP1 / Fold change vs veh, LRRFIP1 / RFU, NDUFAF7 / Fold change vs veh, NDUFAF7 / RFU, SLC12A2 / Fold change vs veh, SLC12A2 / RFU, IBTK / Fold change vs veh, IBTK / RFU, ESF1 / Fold change vs veh, ESF1 / Fold change vs veh, TMEM50B / RFU, TAOK1 / Fold change vs veh, TAOK1 / RFU, ACBD3 / Fold change vs veh, ACBD3 / RFU, TMA16 / Fold change vs veh, TMA16 / RFU, RWDD3 / Fold change vs veh, RWDD3 / RFU, BCAT1 / Fold change vs veh, BCAT1 / RFU, EDEM3 / Fold change vs veh, EDEM3 / RFU, TMEM33 / Fold change vs veh, TMEM33 / RFU, WDR75 / Fold change vs veh, WDR75 / RFU, AHCTF1 / Fold change vs veh, AHCTF1 / RFU, TFRC / Fold change vs veh, TFRC / RFU, ZDHHC17 / Fold change vs veh, ZDHHC17 / RFU, NOM1 / Fold change vs veh, NOM1 / RFU, ARL8B / Fold change vs veh, ARL8B / RFU, ZBTB11 / Fold change vs veh, ZBTB11 / RFU, TAMM41 / Fold change vs veh, TAMM41 / RFU, KIAA1704 /// LOC100996395 / Fold change vs veh, KIAA1704 /// LOC100996395 / RFU, ING1 / Fold change vs veh, ING1 / RFU, TRMT61B / Fold change vs veh, TRMT61B / RFU, FUBP3 / Fold change vs veh, FUBP3 / RFU, TP53 / Fold change vs veh, TP53 / RFU, TNKS2 / Fold change vs veh, TNKS2 / RFU, ZFP14 / Fold change vs veh, ZFP14 / RFU, ACTR2 / Fold change vs veh, ACTR2 / RFU, PPP3R1 / Fold change vs veh, PPP3R1 / RFU, PIK3R1 / Fold change vs veh, PIK3R1 / RFU, HNRNPA1 / Fold change vs veh, HNRNPA1 / RFU, RNF170 / Fold change vs veh, RNF170 / RFU, ZNF28 / Fold change vs veh, ZNF28 / RFU, RNGTT / Fold change vs veh, RNGTT / RFU, OGT / Fold change vs veh, OGT / RFU, BRD1 / Fold change vs veh, BRD1 / RFU, MARS / Fold change vs veh, MARS / RFU, ZNF655 / Fold change vs veh, ZNF655 / RFU, FAHD1 / Fold change vs veh, FAHD1 / RFU, BDP1 / Fold change vs veh, BDP1 / RFU, LRRCC1 / Fold change vs veh, LRRCC1 / RFU, ARID1A / Fold change vs veh, ARID1A / RFU, ZNF146 / Fold change vs veh, ZNF146 / RFU, ZNF330 / Fold change vs veh, ZNF330 / RFU, GPN3 / Fold change vs veh, GPN3 / RFU, C9orf123 / Fold change vs veh, C9orf123 / RFU, N4BP2L2 / Fold change vs veh, N4BP2L2 / RFU, ARFIP1 / Fold change vs veh, ARFIP1 / RFU, FAM179B / Fold change vs veh, FAM179B / RFU, BCL10 / Fold change vs veh, BCL10 / RFU, UHRF1BP1L / Fold change vs veh, UHRF1BP1L / RFU, BET1 / Fold change vs veh, BET1 / RFU, CNOT2 / Fold change vs veh, CNOT2 / RFU, ZNF268 / Fold change vs veh, ZNF268 / Fold change vs veh, ZNF507 / RFU, DGCR2 / Fold change vs veh, DGCR2 / RFU, WDSUB1 / Fold change vs veh, WDSUB1 / Fold change vs veh, HSP90B1 /// MIR3652 / RFU, ADSS / Fold change vs veh, ADSS / RFU, GK / Fold change vs veh, GK / RFU, ZNF148 / Fold change vs veh, ZNF148 / RFU, TAF9 / Fold change vs veh, TAF9 / RFU, SLC1A5 / Fold change vs veh, SLC1A5 / RFU, SLMO2 / Fold change vs veh, SLMO2 / RFU, ABCC4 / Fold change vs veh, ABCC4 / RFU, LOC101060439 /// RAP1B / Fold change vs veh, LOC101060439 /// RAP1B / RFU, RFX7 / Fold change vs veh, RFX7 / RFU, GTPBP10 / Fold change vs veh, GTPBP10 / RFU, CNEP1R1 / Fold change vs veh, CNEP1R1 / RFU, BIVM-ERCC5 /// ERCC5 / Fold change vs veh, BIVM-ERCC5 /// ERCC5 / RFU, ILF3 / Fold change vs veh, ILF3 / RFU 11762660_at / Fold change /veh 11762660_at / RFU VCAN (11757783_s_at) / Fold change /veh VCAN (11757783_s_at) / RFU DDX43 (11728927_at) / Fold change /veh DDX43 (11728927_at) / RFU KRT8 (11758188_x_at) / Fold change /veh KRT8 (11758188_x_at) / RFU NKD1 (11759106_at) / Fold change /veh NKD1 (11759106_at) / RFU SRD5A1 (11742802_a_at) / Fold change /veh SRD5A1 (11742802_a_at) / RFU TPSAB1 /// TPSB2 (11721975_s_at) / Fold change /veh TPSAB1 /// TPSB2 (11721975_s_at) / RFU GSTM3 (11746129_a_at) / Fold change /veh GSTM3 (11746129_a_at) / RFU IL23R (11737362_x_at) / Fold change /veh IL23R (11737362_x_at) / RFU TMEM51 (11727254_a_at) / Fold change /veh TMEM51 (11727254_a_at) / RFU PIWIL2 (11732686_x_at) / Fold change /veh PIWIL2 (11732686_x_at) / RFU ORM1 (11744905_x_at) / Fold change /veh ORM1 (11744905_x_at) / RFU CCDC152 (11743942_at) / Fold change /veh CCDC152 (11743942_at) / RFU ECM1 (11717891_a_at) / Fold change /veh ECM1 (11717891_a_at) / RFU IL23R (11748794_a_at) / Fold change /veh IL23R (11748794_a_at) / RFU TNFAIP8L3 (11732012_x_at) / Fold change /veh TNFAIP8L3 (11732012_x_at) / RFU MBOAT4 (11741988_at) / Fold change /veh MBOAT4 (11741988_at) / RFU 11764193_at / Fold change /veh 11764193_at / RFU TMEM53 (11763286_at) / Fold change /veh TMEM53 (11763286_at) / RFU MAGEB2 (11727129_at) / Fold change /veh MAGEB2 (11727129_at) / RFU TMEM200A (11744735_a_at) / Fold change /veh TMEM200A (11744735_a_at) / RFU CCDC152 (11751479_a_at) / Fold change /veh CCDC152 (11751479_a_at) / RFU FAM211A (11726209_a_at) / Fold change /veh FAM211A (11726209_a_at) / RFU RGS16 (11746705_a_at) / Fold change /veh RGS16 (11746705_a_at) / RFU VCAN (11755009_s_at) / Fold change /veh VCAN (11755009_s_at) / RFU RHOB (11743442_s_at) / Fold change /veh RHOB (11743442_s_at) / RFU RGS16 (11720943_a_at) / Fold change /veh RGS16 (11720943_a_at) / RFU RGS16 (11720944_at) / Fold change /veh RGS16 (11720944_at) / RFU, VPS4B / Fold change vs veh, VPS4B / RFU, CREB1 / Fold change vs veh, CREB1 / RFU, DNAJC13 / Fold change vs veh, DNAJC13 / RFU, GNAQ / Fold change vs veh, GNAQ / RFU, CDK5R1 / Fold change vs veh, CDK5R1 / RFU, ZRANB3 / Fold change vs veh, ZRANB3 / RFU, CUL4A / Fold change vs veh, CUL4A / RFU, CCNY / Fold change vs veh, CCNY / RFU, UFL1 / Fold change vs veh, UFL1 / RFU, COG3 / Fold change vs veh, COG3 / RFU, DIAPH2 / Fold change vs veh, DIAPH2 / RFU, SKA2 / Fold change vs veh, SKA2 / RFU, AFF3 / Fold change vs veh, AFF3 / RFU, LMF1 / Fold change vs veh, LMF1 / RFU, IPO11 / Fold change vs veh, IPO11 / RFU, DFFB / Fold change vs veh, DFFB / RFU, FOXP1 / Fold change vs veh, FOXP1 / RFU, CARD8 / Fold change vs veh, CARD8 / RFU, STRN3 / Fold change vs veh, STRN3 / RFU, ADK / Fold change vs veh, ADK / RFU, RASSF2 / Fold change vs veh, RASSF2 / RFU, WIPF1 / Fold change vs veh, WIPF1 / RFU, LARP1B / Fold change vs veh, LARP1B / RFU, RASA1 / Fold change vs veh, RASA1 / RFU, RB1 / Fold change vs veh, RB1 / RFU, PPFIA1 / Fold change vs veh, PPFIA1 / RFU, MAT2A / Fold change vs veh, MAT2A / RFU, CCT5 / Fold change vs veh, CCT5 / RFU, WDR92 / Fold change vs veh, WDR92 / RFU, CUX1 / Fold change vs veh, CUX1 / RFU, TTC7A / Fold change vs veh, TTC7A / RFU, TMEM135 / Fold change vs veh, TMEM135 / RFU, DEPTOR / Fold change vs veh, DEPTOR / RFU, CPM / Fold change vs veh, CPM / RFU, DNAJB6 / Fold change vs veh, DNAJB6 / RFU, CACNA2D3 / Fold change vs veh, CACNA2D3 / RFU, DTX4 / Fold change vs veh, DTX4 / RFU, TFCP2 / Fold change vs veh, TFCP2 / RFU, GMCL1 /// GMCL1P1 / Fold change vs veh, GMCL1 /// GMCL1P1 / RFU, AEBP2 / Fold change vs veh, AEBP2 / RFU, SNHG1 /// SNORD22 /// SNORD25 /// SNORD26 /// SNORD27 /// SNORD28 /// SNORD29 /// SNORD31 / Fold change vs veh, SNHG1 /// SNORD22 /// SNORD25 /// SNORD26 /// SNORD27 /// SNORD28 /// SNORD29 /// SNORD31 / Fold change (Aza/veh), C12orf56 (ProbeSet 11735607_a_at) / Fold change (ACY-1035/veh), C12orf56 (ProbeSet 11735607_a_at) / Fold change (Aza/veh), FGFR1OP (ProbeSet 11751329_s_at) / Fold change (ACY-1035/veh), FGFR1OP (ProbeSet 11751329_s_at) / Fold change (Aza/veh), VPS36 (ProbeSet 11739960_a_at) / Fold change (ACY-1035/veh), VPS36 (ProbeSet 11739960_a_at) / RFU SYPL1 (11715823_x_at) / Fold change /veh SYPL1 (11715823_x_at) / RFU IGFBP7 (11715501_s_at) / Fold change /veh IGFBP7 (11715501_s_at) / RFU REEP3 (11722064_at) / Fold change /veh REEP3 (11722064_at) / RFU IGLL1 (11728026_x_at) / Fold change /veh IGLL1 (11728026_x_at): dose or concentration left out as unconfirmed
Details: MV-4-11 cells, 48 hours

## Nc1ncn([C@@H]2O[C@H](CO)[C@@H](O)[C@H]2O)c(=O)n1 [azacitidine]
  RFU LOC100653217 /// NTM (11731650_a_at): 11.58 RFU
